What is called AC50 is the concentration at which the activity in the assay is half-maximal. A low value points to greater potency.

Bounds are passed on as bounds.

The test system of the first experiment is TFEB. As to the kind of experiment: TFEB nuclear translocation assay, HeLa wt cells. The format is cell-based. To be noted: 2 hrs compound treatment, Table 1 does not say HeLa wt or TRPML1 KO. The protocol:
For the TFEB nuclear translocation assay, HeLa wt or HeLa TRPML1 KO cells were plated at 2700 cells/well into black-walled, 384-well Cell carrier Ultra tissue culture treated plates in complete media and incubated overnight. The next day, cells are treated for 2 hrs with compounds and incubated at 37° C. Cells were then fixed for 30 minutes at room temperature in 4% final PFA and washed five times with 90 μL PBS. PBS is aspirated from the wells and the cells are blocked with 7.5 μL blocking buffer (1:1 PBS/Odyssey block buffer containing 0.1% triton x-100 and 1% goat serum). After 30-60 minutes of block, 7.5 μL of primary anti-TFEB (rabbit) antibody is added for a final dilution of 1:200 antibody in 15 μL blocking buffer. Plates are incubated overnight at 4° C. The following day, plates are washed again into PBS, 90 μL with 5 washes, all PBS is aspirated from the wells and the cells are incubated for 1 hr in 1:1000 goat-anti rabbit Alexa 488 secondary antibody, also containing 10 μg/mL Hoechst 33342. After the 1 hr room temperature incubation, plates are washed a final time into PBS, sealed with foil and imaged with an automated epifluorescence microscopy (PerkinElmer Operetta CLS). Four different fields were imaged per well using ×20 magnification for DAPI and FITC filter sets. Images were quantified using PerkinElmer Harmony software, briefly: apply flatfield correction (basic/advanced) for input images. Use the Find Nuclei building block with channel set at Hoechst to find the nuclei. Use the Find cytoplasm building block with channel set to Alexa 488 to find the cytoplasm. Use select cell region with Channel set at Alexa 488 and region of interest as Nuclei and define outer border at 0 μm and inner at 45 μm to cover complete nuclei. Use select cell region with Channel set at Alexa 488 and region of interest as ring region and define outer border at −5 μm and inner at 0 μm to define a ring around the nucleus. Use the find calculate intensity parameter to calculate intensity of the nuclear region and the ring region. Define results as Number of nuclei and ratio of A/B where A is Intensity of Nuclei and B is intensity of the ring region.
The compound numbers correspond to the compound numbers above in Tables A or B. Compounds having an activity designated as “++++” provided an AC50 of ≤2.00 μM; compounds having an activity designated as “+++” provided an AC50 of 2.01-8.00 μM; compounds having an activity designated as “++” provided an AC50 of 8.01-9.99 μM; and compounds having an activity designated as “+” provided an AC50 of ≥10.00 μM.
Turning to `C[C@@H]1CN(CC2CCN(c3c(F)cccc3NS(=O)(=O)c3ccc(S(C)(=N)=O)cc3)CC2)C[C@H](C)O1` (single isomer, unassigned) [Compound A-847], the concentration at half-maximal activity (AC50) was ≥ 10000 nM.

The same experiment, now with this note: Homo sapiens, HeLa, 2 h, 2 hrs compound treatment, Table 1 does not say HeLa wt or TRPML1 KO.
For `C[C@@H]1CN(c2nn(S(=O)(=O)c3ccc(S(=O)(=O)N(C)C)cc3)c3ccccc23)C[C@H](C)C1F` (stereo partly drawn) [Compound A-969, 4-({3-[(3R,5S)-4-fluoro-3,5-dimethylpiperidin-1-yl]-1H-indazol-1-yl}sulfonyl)-N,N-dimethylbenzene-1-sulfonamide], the AC50 is ≤ 2000 nM.

On to `COCC1(C)CCN(c2ccccc2CS(=O)(=O)c2ccc(S(=O)(=O)N(C)C)cc2)CC1` [Compound A-493, 4-({2-[4-(methoxymethyl)-4-methylpiperidin-1-yl]phenyl}methanesulfonyl)-N,N-dimethylbenzene-1-sulfonamide], for which the concentration at half-maximal activity (AC50) was ≤ 2000 nM.

Turning to `COCC1(C)CCN(c2ccccc2NS(=O)(=O)Cc2ccc3c(c2)COC3)CC1` [Compound A-612, 1-(1,3-dihydro-2-benzofuran-5-yl)-N-{2-[4-(methoxymethyl)-4-methylpiperidin-1-yl]phenyl}methanesulfonamide], the AC50 was in the range of 2010 to 8000 nM.

As for `CC(C)c1ccc(S(=O)(=O)Nc2ccccc2N2CCN(C(=O)C(C)(C)C)CC2)cc1` [Compound A-512, N-{2-[4-(2,2-dimethylpropanoyl)piperazin-1-yl]phenyl}-4-(propan-2-yl)benzene-1-sulfonamide], the AC50 lay within 2010 to 8000 nM.

With `C[C@@H]1CN(CC2CCN(c3c(Br)cccc3NS(=O)(=O)c3ccc(S(=O)(=O)N(C)C)cc3)CC2)C[C@H](C)O1` [Compound A-864, N4-[3-bromo-2-(4-{[(2R,6S)-2,6-dimethylmorpholin-4-yl]methyl}piperidin-1-yl)phenyl]-N1,N1-dimethylbenzene-1,4-disulfonamide], the concentration at half-maximal activity (AC50) was ≤ 2000 nM.

For `C[C@@H]1CN(c2ccccc2NS(=O)(=O)c2ccc(S(=O)(=O)N(C)C)cc2)C[C@H](C)N1c1ccc(Cl)cn1` [Compound A-121, N4-{2-[(3R,5S)-4-(5-chloropyridin-2-yl)-3,5-dimethylpiperazin-1-yl]phenyl}-N1,N1-dimethylbenzene-1,4-disulfonamide], the concentration at half-maximal activity (AC50) is ≤ 2000 nM.

The compound `CNS(=O)(=O)c1ccc(S(=O)(=O)Nc2ccccc2N2CCC(c3ccc(Cl)cc3F)CC2)cc1` [Compound A-424, N1-{2-[4-(4-chloro-2-fluorophenyl)piperidin-1-yl]phenyl}-N4-methylbenzene-1,4-disulfonamide] yielded an AC50 of 2010 to 8000 nM.

In the case of `CN(C)S(=O)(=O)c1ccc(S(=O)(=O)Nc2ccccc2N2CCC(N)(c3ccc(Cl)cc3F)CC2)cc1` [Compound A-150, N4-{2-[4-amino-4-(4-chloro-2-fluorophenyl)piperidin-1-yl]phenyl}-N1,N1-dimethylbenzene-1,4-disulfonamide], the half-maximal activity concentration (AC50) was ≤ 2000 nM.

For `CC(c1cc(Cl)cnc1N1CCC(CN2CCC(F)(F)CC2)CC1)S(=O)(=O)c1ccc2c(c1)CCC2` (single isomer, unassigned) [Compound A-993, 5-chloro-2-(4-((4,4-difluoropiperidin-1-yl)methyl)piperidin-1-yl)-3-(1-((2,3-dihydro-1H-inden-5-yl)sulfonyl)ethyl)pyridine], the AC50 was ≤ 2000 nM.

As to `CC(C)(C)C(=O)N1CCN(c2ccccc2NS(=O)(=O)c2ccc(C(F)F)cc2)CC1` [Compound A-529, 4-(difluoromethyl)-N-{2-[4-(2,2-dimethylpropanoyl)piperazin-1-yl]phenyl}benzene-1-sulfonamide], the half-maximal activity concentration (AC50) fell in the range of 2010 to 8000 nM.

Consider `COCC1(C)CCN(c2ccccc2C(C)S(=O)(=O)c2ccc(S(=O)(=O)N(C)C)cc2)CC1` (single isomer, unassigned; enantiomer 1) [Compound A-698, 4-((1-(2-(4-(methoxymethyl)-4-methylpiperidin-1-yl)phenyl)ethyl)sulfonyl)-N,N-dimethylbenzenesulfonamide, enantiomer 1], for which the concentration at half-maximal activity (AC50) is ≤ 2000 nM.

Take `CN(C)S(=O)(=O)c1ccc(S(=O)(=O)Nc2ccccc2N2CC3(CN(c4ccc(Cl)cc4F)C3)C2)cc1` [Compound A-296, N1-(2-(6-(4-chloro-2-fluorophenyl)-2,6-diazaspiro[3.3]heptan-2-yl)phenyl)-N4,N4-dimethylbenzene-1,4-disulfonamide]: the AC50 is 2010 to 8000 nM.

Regarding `O=S(=O)(Nc1cccc(Cl)c1N1CCN(c2ccc(Cl)cc2F)CC1)c1ccc2c(c1)CCC2` [Compound A-288, N-{3-chloro-2-[4-(4-chloro-2-fluorophenyl)piperazin-1-yl]phenyl}-2,3-dihydro-1H-indene-5-sulfonamide], the half-maximal activity concentration (AC50) is ≤ 2000 nM.

Consider `COCC1(C)CCN(c2ccccc2NS(=O)(=O)c2ccc(C3CC3(F)F)cc2)CC1` (stereo not drawn) [Compound A-650, 4-(2,2-difluorocyclopropyl)-N-{2-[4-(methoxymethyl)-4-methylpiperidin-1-yl]phenyl}benzene-1-sulfonamide], for which the half-maximal activity concentration (AC50) is ≤ 2000 nM.

As for `Cn1ccc2cc(S(=O)(=O)Nc3ccccc3N3CCN(C(=O)C(C)(C)C)CC3)ccc21` [Compound A-515, N-{2-[4-(2,2-dimethylpropanoyl)piperazin-1-yl]phenyl}-1-methyl-1H-indole-5-sulfonamide], the AC50 was 2010 to 8000 nM.

`CC1(C)CC2(CCN(c3ccccc3NS(=O)(=O)Cc3ccc4c(c3)COCC4)CC2)CO1` [Compound A-712, 1-(3,4-dihydro-1H-2-benzopyran-7-yl)-N-(2-{3,3-dimethyl-2-oxa-8-azaspiro[4.5]decan-8-yl}phenyl)methanesulfonamide] returned a concentration at half-maximal activity (AC50) of 2010 to 8000 nM.

The compound `COCCN1CCN(c2ccccc2NS(=O)(=O)c2ccc(S(=O)(=O)N(C)C)cc2)CC1` [Compound A-553, N4-{2-[4-(2-methoxyethyl)piperazin-1-yl]phenyl}-N1,N1-dimethylbenzene-1,4-disulfonamide] yielded an AC50 of 2010 to 8000 nM.

For `O=S(=O)(Nc1ccccc1N1CCC(c2ccc(Cl)cc2F)CC1)c1ccc(C2(C(F)(F)F)N=N2)cc1` [Compound A-732, N-{2-[4-(4-chloro-2-fluorophenyl)piperidin-1-yl]phenyl}-4-[3-(trifluoromethyl)-3H-diazirin-3-yl]benzene-1-sulfonamide], the AC50 is 2010 to 8000 nM.

Consider `CN(C)C1CCCC12CCN(c1ccccc1NS(=O)(=O)c1ccc(S(=O)(=O)N(C)C)cc1)CC2` (stereo not drawn) [Compound A-281, N4-{2-[1-(dimethylamino)-8-azaspiro[4.5]decan-8-yl]phenyl}-N1,N1-dimethylbenzene-1,4-disulfonamide], for which the AC50 was ≥ 10000 nM.

Take `O=S(=O)(Nc1cc(Cl)ccc1N1CCCC2(CCCOC2)C1)c1ccc2c(c1)CCC2` (stereo not drawn) [Compound A-347, N-(5-chloro-2-{2-oxa-8-azaspiro[5.5]undecan-8-yl}phenyl)-2,3-dihydro-1H-indene-5-sulfonamide]: the AC50 is ≤ 2000 nM.

`COCC1(C)CCN(c2ccccc2NS(=O)(=O)Cc2ccccc2C#N)CC1` [Compound A-610, 1-(2-cyanophenyl)-N-{2-[4-(methoxymethyl)-4-methylpiperidin-1-yl]phenyl}methanesulfonamide] yielded a half-maximal activity concentration (AC50) of 2010 to 8000 nM.

Turning to `O=S(=O)(Nc1cc(Cl)ccc1N1CCC2(COC2)C1)c1ccc2c(c1)CCC2` [Compound A-395, N-(5-chloro-2-{2-oxa-6-azaspiro[3.4]octan-6-yl}phenyl)-2,3-dihydro-1H-indene-5-sulfonamide], the AC50 was ≥ 10000 nM.

Regarding `CC(c1cccc(F)c1N1CCC(CN2C3CCC2COC3)CC1)S(=O)(=O)c1ccc(C(F)F)cc1` (stereo not drawn) [Compound A-906, 8-{[1-(2-{1-[4-(difluoromethyl)benzenesulfonyl]ethyl}-6-fluorophenyl)piperidin-4-yl]methyl}-3-oxa-8-azabicyclo[3.2.1]octane], the AC50 is ≤ 2000 nM.

As to `Cn1cnc(S(=O)(=O)Nc2ccccc2N2CCN(c3ccc(Cl)cc3F)CC2)c1` [Compound A-2, N-{2-[4-(4-chloro-2-fluorophenyl)piperazin-1-yl]phenyl}-1-methyl-1H-imidazole-4-sulfonamide], the AC50 is ≤ 2000 nM.

For the compound `C[C@@H]1CN(CC2CCN(c3c(F)cccc3NS(=O)(=O)c3ccc(S(C)(=N)=O)cc3)CC2)C[C@H](C)O1` (stereo partly drawn) [Compound A-841, N-(2-(4-(((2R,6S)-2,6-dimethylmorpholino)methyl)piperidin-1-yl)-3-fluorophenyl)-4-(S-methylsulfonimidoyl)benzenesulfonamide], the concentration at half-maximal activity (AC50) lay in the range of 2010 to 8000 nM.

As to `Cc1ccc(S(=O)(=O)N2Cc3cccc(N4CCOCC4)c3C2)cc1` [Compound A-820, 2-(4-methylbenzenesulfonyl)-4-(morpholin-4-yl)-2,3-dihydro-1H-isoindole], the concentration at half-maximal activity (AC50) was ≥ 10000 nM.

The values are drawn from patent publication US20230104936A1, “TRPML MODULATORS” (Casma Therapeutics, Inc., priority 2019, published 2023).
